Results taken from patent US20200206198A1, “CFTR CHANNEL ACTIVATOR FOR USE IN THE TREATMENT AND/OR PREVENTION OF GLUTEN SENSITIVITY CONDITIONS” (priority 2017, published 2020).

System: Caco-2 cells
Assay: P31-43-induced epithelial stress markers in Caco-2 cells (immunoblot)
Format: cell-based, human
Description: Human colon adenocarcinoma-derived Caco-2 and T84 cells were obtained from the ATCC. Cells were maintained in T25 flask in Modified Eagle Medium (MEM) for Caco-2, or Ham's F12+DMEM (1:1) for T84, supplemented with 10% fetal bovine serum (FBS), 2 mM Glutamine+1% Non Essential Amino Acids (NEAA) and the antibiotics penicillin\streptomycin (100 units/ml) (all reagents from Lonza) (Luciani, A., et al. 2010. Cells were grown in Transwells (Corning, 3470 or 3460) under the normal condition (Luciani, A., et al. 2012). Briefly, 8×10^4 or 5×10^5 cells were seeded in 6.5-mm diameter or 12-mm diameter, respectively, and grown until the RT reached 800 to 1,200 Ω·cm2. Transwells with a pore size of 0.4 μm were used. Medium in both the apical and basolateral chambers was changed every other day. Cells were treated with 20 μg/ml of either α-gliadin peptide P31-43 or […]-69 or scrambled PGAV or modified P31-43 either biotin-tagged or not, for different time point (from 1 h short challenge up to 24 h). Cells were also treated with 50 or 100 μg/ml of […]-68 or PGAV peptides for 3 h. Caco-2 or T84 cells were also treated with: CFTR potentiators VX-770 (10 μM) or VX-532 (20 μM) (Selleck chemicals) or Genistein (10 μM) (Sigma-Aldrich) or in presence or absence of CFTR inhibitor172 (CFTRinh172, 20 μM) or 3-methyl-adenine (3-MA, 20 μM) (Calbiochem), Z-DON (20 nM, Zedira) or BAPTA-AM (10 μM, Calbiochem). The whole lysate or membrane fraction proteins of cell lines and mice intestine homogenates were obtained from treated and untreated cells or mice as described. The equal amount of protein were resolved by SDS-PAGE gel and blotted with antibodies against: SQSTM1, (Sigma Aldrich, 108k4767) 1:1000, PPARγ (Santa Cruz Biotechnology, sc7273) 1:500, BECN1 (Abcam, ab58878) 1:1000, CFTR clone M3A7 (Abcam, ab4067) 1:500, phospho-ERK1/2 (php42/44, Cell Signaling Technology, #91101) 1:1000, UVRAG (Santa Cruz Biotechnology sc8215) 1:1000, NHERF-1 (BD, 611161) 1:1000, EZRIN (BD, 610603) 1:1000, hVps34 (SigmaV9764) 1:300, biotin (Abcam, ab1227) 1:2000, PKAr2a (BD, 610625) 1:500, Ubiquitin (Cell Signaling clone P4D1, #3936) 1:1000, CHIP (Calbiochem PC711) 1:500, Caspase-1 p10 (M-20) (Santa Cruz Biotechnology, sc-514) 1:200, NLRP3 (Abcam, ab4207), 1:500, IDO1 (monoclonal; cv152) 1:1000^[80], used as primary antibodies. Normalization was performed by probing the membrane with anti-β-actin (Cell Signaling, #4970) 1:1000, anti-Gapdh (Sigma-Aldrich, G8795) 1:1000 and anti-flottilin (Abcam ab15148) 1:1000 antibodies. Immunoprecipitations of endogenous proteins were performed on 500 μg of lysates from Caco-2 cells. The proteins were incubated for 12-18 h at 4° C. with 10 ug\ml of specific antibody followed by the addition of Protein A/G-agarose beads for 4 h at 4° C. The beads were then washed three times with lysis buffer and Laemmli's sample buffer was added to the samples. The membranes were then blotted with: CFTR clone CF3 (Abcam, ab2784) 1:1000, TG2 (clone CUB7402; NeoMarkers) 1:1000, CHIP (Calbiochem PC711) 1:500, Ubiquitin (Cell Signaling clone P4D1 3936), isopeptide (Abcam 422) 1:1000, PKAR2 (BD 610625) 1:500. FIG. 5: a, Immunoprecipitation of TG2 protein 15 in Caco-2 cells challenged with […]-68, PGAV or P31-43 and blotted with HRP-streptavidin. b, Immunoprecipitation of CFTR protein in Caco-2 cells challenged with P31-43 in the presence of absence of the TG2 inhibitor ZDON or TG2 RNA silencing and 20 blotted with anti-isopeptide glutamime-lysine and anti-TG2 antibodies. c, Recombinant TG2 and/or NBD1 incubated in vitro with P31-43 and solved in native page in the presence or absence of Ca2+. d, Immunoprecipitation of CFTR protein and immunblot with anti-CFTR antibodies or anti-TG2 antibodies. e, Immunoprecipitation of CFTR protein and immunoblot with anti-TG2 or anti-CFTR antibodies; effects of ZDON and BAPTA-AM. f, In situ detection of TG2 activity in Caco-2 cells pulsed with Ca2+ in the presence or absence of VX-770 or Z-DON. […]

Row | Molecule | TG2-mediated cross-linking of PKAr2a | abundance of phosphorylated PKA protein | effect on P31-43-induced PKAr2a cross-linking and phospho-PKA decrease | protection from P31-43-induced downregulation of PPARγ | protection from P31-43-induced phosphorylation of ERK-1/2 | protection from P31-43-induced upregulation of HSP70 expression
1 | α-gliadin peptide LGQQQPFPPQQPY (SEQ ID 1), induces an enterocyte stress response (P31-43 sequence of alpha-gliadin) | stimulated TG2-mediated cross-linking | decrease in the abundance of phosphorylated PKA protein |  |  |  | 
2 | CC(C)(C)c1cc(C(C)(C)C)c(NC(=O)c2c[nH]c3ccccc3c2=O)cc1O [VX-770, N-(2,4-di-tert-butyl-5-hydroxyphenyl)-4-oxo-1,4-dihydroquinoline-3-carboxamide] |  |  | counteracted all these TG2-mediated effects of P31-43 | protected | protected | protected
